Series [1] has as its target T1, estrogen receptor (Homo sapiens, UniProt P03372).
T1 construct: endogenous in cells; host or cells: MCF-7 cells (ATCC); 225,000 g supernatant of sonicated lysate
Nature of the series: Estrogen receptor competitive binding assay (3H-E2, MCF-7 cell lysate). Conditions: relative to E/Z-4-OHT = 100.

Series [2] has as its target T2, ανβ3 integrin present on viable MDA-MB-435 cells (Homo sapiens, UniProt P05106+P06756).
T2 construct: endogenous in cells
Nature of the series: Vitronectin cell adhesion (competition) assay. The format is cell-based. The source says: The data are presented as the mean fluorescence for each condition with the background, drug-free cell fluorescence subtracted.

The subject of series [3] is Staphylococcus aureus Mu 50 (VISA). Conditions: for MIC: Mu 50 VISA.
In series [4] the test system is Staphylococcus aureus 8325 (susceptible). Nature of the series: microbe, parasite or virus in culture.
Series [5] shares this test system. The conditions noted are these: for MIC: 8325 susceptible.
In series [6] the test system is Staphylococcus aureus IL-F (VISA).
The test system of series [7] is Staphylococcus aureus IL-A (Hetero VISA).
Series [8] concerns Staphylococcus aureus Mu 3 (Hetero VISA).
For series [9] the following is noted: cell line not stated; cited from earlier work.
Series [10] deals with Staphylococcus aureus Mu 3 (Hetero VISA). Nature of the series: microbe, parasite or virus in culture.
The subject of series [11] is Staphylococcus aureus IL-F (VISA). Nature of the series: microbe, parasite or virus in culture.
The test system of series [12] is Staphylococcus aureus IL-A (Hetero VISA). Nature of the series: microbe, parasite or virus in culture.
The subject of series [13] is Staphylococcus aureus Mu 50 (VISA). Nature of the series: microbe, parasite or virus in culture.
Series [14] deals with MCF-7 cells. Nature of the series: Breast cancer cell growth inhibition, 4 h treatment. The conditions noted are these: MCF-7 (ER/AEBS/MDR +/+/−), 4 h treatment. Here is the method:
(§1) Breast cancer cell growth inhibition: The ER-targeted DOX-formaldehyde conjugates, 11a-c, were evaluated against four breast cancer cell lines that differ in terms of estrogen receptor and multidrug resistance expression. MCF-7 cells are human breast adenocarcinoma cells that express estrogen receptor at a level of 195,000 sites/cell. MCF-7/Adr cells are an ER-negative, doxorubicin-resistant variant of the parent MCF-7 that express the multidrug resistance (MDR) phenotype. MDA-MB-231 and MDA-MB-435 are ER-negative human breast adenocarcinoma and ductal carcinoma cells, respectively. All cytotoxins were formulated as 100× solutions in DMSO/1% AcOH and delivered to cells as 1% DMSO (0.01% AcOH) in cell culture medium. In all experiments cell treatment lasted 4 h.
(§2) In Vitro cellular growth inhibition experiments: The IC50 for the targeted formaldehyde conjugates and all control compounds were performed as previously described with minor modifications. All compounds were solubilized in dimethylsulfoxide containing 1% v/v acetic acid. The concentrations of all 100× DMSO/1% AcOH drug solutions was determined spectrophotometrically by absorbance at 480 nm (ε=[…]). […] For every experiment each drug level and controls were performed in hexuplicate; each experiment was performed in at least duplicate. Error bars represent one standard deviation about the mean for the six wells per lane measured for each drug concentration.

Series [15] relates to MCF-7/Adr cells. Described as above. The conditions noted are these: MCF-7/Adr (−/+/+), 4 h treatment. Here is the method:
as §1, §2

The subject of series [16] is MDA-MB-435. Described as above. The conditions noted are these: MDA-MB-435 (−/+/−), 4 h treatment. As for the experimental part: as §1, §2
Series [17] relates to MDA-MB-231. Described as above. Conditions: MDA-MB-231 (−/+/−), 4 h treatment. As for the experimental part:
as §1, §2

For series [18] the following is noted: cited from earlier work; for tolerance by mice: doxoform: doses as low as 1 mg/kg, epidoxoform: up to 150% of MTD of doxorubicin.
For series [19], the system named is MCF-7/ADR. The conditions noted are these: resistant MCF-7/ADR; cited from earlier work.
In series [20] the test system is MCF-7. The conditions noted are these: sensitive MCF-7; cited from earlier work.
For series [21] the following is noted: buffer, pH 7.4; cited from earlier work.
The test system of series [22] is MDA-MB-23 1, and BT-20 human breast cancer cells. The conditions noted are these: cited from earlier work.
Series [23] relates to human breast cancer xenografts. The conditions noted are these: same time period (10 days); cited from earlier work.
Series [24] concerns 3T3 mouse fibroblasts. Conditions: cited from earlier work.
Series [25] concerns S. aureus ATCC 25723. Conditions: cited from earlier work.
In series [26] the test system is E. coli ATCC 25922. The conditions noted are these: cited from earlier work.
Series [27] relates to Human erythrocytes. Conditions: cited from earlier work.
The test system of series [28] is P. aeruginosa ATCC 27853. Conditions: cited from earlier work.
Series [29] is described as follows: Water solubility and storage stability of RGD constructs.

≈ marks a conversion by molar mass, not a printed value. Where two headings read alike, the source gives them in different places. Residues, ends and D or L forms follow the SMILES beside them. *: point of attachment. X1 = NOCC(=O)NCCOCCN*

For orientation: IC50 means the concentration at which inhibition is half-maximal. What is called half-life is the time needed for the level to fall by half in the phase considered.

With `CCC(=C(c1ccc(O)cc1)c1ccc(OCCN(C)CCOCCOCCON=Cc2ccc(O)c(C(N)=O)c2)cc1)c1ccccc1` [10c], the “RBA^OHT” value in series [1] was 3.3.

In series [2], `N=C(N)NCCC[C@H](NC(=O)[C@H](CS)NC(=O)[C@H](CC(=O)O)NC(=O)[C@@H](N)CS)C(=O)NCC(=O)N[C@@H](CC(=O)O)C(=O)N[C@@H](CS)C(=O)N[C@@H](Cc1ccccc1)C(=O)N[C@@H](CS)C(=O)NCCOCCNC(=O)CON` [Acyclic-RGD-4C-tether 3] (H-CDCRGDCFC-X1) had an IC50 of 0.001 µM.

Turning to `O=C(O)c1cn(C2CC2)c2cc(N3CCNCC3)c(F)cc2c1=O` [Ciprofloxacin, ciprofloxacin], in series [3] (VISA and hetero VISA strains), the antibiotic activity result was “inactive”. Further, the MIC came to 6 µM (≈ 1.99 µg/mL) in [4] (24 h) and 12 µM (≈ 3.98 µg/mL) in series [4] (48 h).

With `O=C(NCN1CCN(c2cc3c(cc2F)c(=O)c(C(=O)O)cn3C2CC2)CC1)c1ccccc1O` [Ciprosaliform, N-(2-Hydroxybenzamido-methyl)-ciprofloxacin], the MIC was 4 µM (≈ 1.92 µg/mL) in series [3] (24 hr); 8 µM (≈ 3.84 µg/mL) in series [3] (48 hr); 1/1 μM in [5] (24 hr); 1/1 μM in [5] (48 hr); 8/8 μM in [6] (24 hr); 8/8 μM in series [6] (48 hr). For the same compound, the MIC in [7] (24 hr) is 8/8 μM; in [7] (48 hr) it was 8/8 μM; in series [8] (24 hr), 4 µM (≈ 1.92 µg/mL); in [8] (48 hr) it was 8 µM (≈ 3.84 µg/mL). Further, in [5] (susceptible strain), the “fold more active than ciprofloxacin” value stood at 6 fold.

With `C#Cc1cccc(Nc2ncnc3cc(OCCOC)c(OCCOC)cc23)c1` [Tarceva, reference compound], the IC50 in series [9] is 0.05 µM.

Consider `CN[C@H](CC(C)C)C(=O)N[C@H]1C(=O)N[C@@H](CC(N)=O)C(=O)N[C@H]2C(=O)N[C@H]3C(=O)N[C@H](C(=O)N[C@H](C(=O)O)c4cc(O)cc(O)c4-c4cc3ccc4O)[C@H](O)c3ccc(c(Cl)c3)Oc3cc2cc(c3O[C@@H]2O[C@H](CO)[C@@H](O)[C@H](O)[C@H]2O[C@H]2C[C@](C)(N)[C@H](O)[C@H](C)O2)Oc2ccc(cc2Cl)[C@H]1O` [Vancomycin, vancomycin], for which the MIC in [10] (24 h) came out at 0.5 µM (≈ 0.725 µg/mL); in [10] (48 h) it was 1 µM (≈ 1.45 µg/mL); in series [11] (24 h) it was 3 µM (≈ 4.35 µg/mL); in series [11] (48 h), 3 µM (≈ 4.35 µg/mL); in [12] (24 h), 1 µM (≈ 1.45 µg/mL); in [12] (48 h), 1 µM (≈ 1.45 µg/mL). Also, the MIC came to 4 µM (≈ 5.8 µg/mL) in series [13] (24 h), 4 µM (≈ 5.8 µg/mL) in [13] (48 h), 0.3 µM (≈ 0.435 µg/mL) in series [4] (24 h) and 0.3 µM (≈ 0.435 µg/mL) in [4] (48 h).

Consider `CC/C(=C(\c1ccc(O)cc1)c1ccc(OCCN(C)C)cc1)c1ccccc1` [compound 12, E/Z-4-Hydroxytamoxifen, reference compound], for which the IC50 in series [14] was 0.3 µM; in [15] it was 20 to 40 µM; in [16] it was 20 to 40 µM; in series [17], 20 to 40 µM.

With `COc1cccc2c1C(=O)c1c(O)c3c(c(O)c1C2=O)C[C@@](O)(C(=O)CO)C[C@@H]3OC1CC2C(OCN2CN2COC3C(C)OC(O[C@H]4C[C@](O)(C(=O)CO)Cc5c(O)c6c(c(O)c54)C(=O)c4c(OC)cccc4C6=O)CC32)C(C)O1` (stereo partly shown) [doxoform], the tolerance by mice entry in series [18] was “poorly tolerated”. For the same compound, the “times as potent as doxorubicin” value in series [19] is 10,000 times; in series [20], 250 times.

Take `COc1cccc2c1C(=O)c1c(O)c3c(c(O)c1C2=O)C[C@@](O)(C(=O)CO)C[C@@H]3O[C@H]1C[C@H]2C(OCN3CN2CO[C@H]2[C@@H](C)O[C@@H](O[C@H]4C[C@](O)(C(=O)CO)Cc5c(O)c6c(c(O)c54)C(=O)c4c(OC)cccc4C6=O)C[C@@H]23)[C@H](C)O1` (stereo partly shown) [epidoxoform]: the tolerance by mice result in series [18] is on record as “well tolerated”. Moreover, in [18] (relative to doxorubicin), the efficacy in mice entry was “improved efficacy in mice, relative to doxorubicin”. In addition, the half-life in series [21] is on record as 2 h.

For the compound `O=c1c(-c2ccc(O)cc2)coc2cc(O)cc(O)c12` [genistein], the IC50 in [9] was 120 µM. The antitumor activity in series [22] was 120 µM. Also, the “increase in tumor size” value in series [23] was above 200%.

In the case of “(KLAKKLA)2: antimicrobial peptide (KLAKKLA)2 SEQ ID NO: 3 (microbe homing peptide)”, the “sub-lethal concentration (lysis)” value is above 272 µM in [24] and above 750 µM in series [27]. Further, the “MIC (bacterial lysis)” value was 6 µM in series [25], 6 µM in [26] and 3 µM in series [28].

With “RGD-4C: peptide CDCRGDCFC; at b346 the form with disulfide bridges [reference compound]”, the water solubility result in [29] was “poorly water soluble over a range of pH”.

These data come from patent US20070275911A1, “Targeted Drug-Formaldehyde Conjugates and Methods of Making and Using the Same” (priority 2003, published 2007).
